According to patent US20050288309A1, “Fungicidal mixtures” (priority 2002, published 2005):

Test system: Plasmopara viticola
Assay: Activity against Peronospora of grapevines caused by Plasmopara viticola (protective spray test on potted vines)
Format: in vivo, cultivar Müller-Thurgau
Details: individual active compound, untreated control 70% infection
Method: The active compounds, separately or jointly, were prepared as a 10% emulsion in a mixture of 63% by weight of cyclohexanone and 27% by weight of emulsifier and diluted with water to the desired concentration.
Evaluation was carried out by determining the infected leaf areas in percent. These percentages were converted into efficacies. The efficacy (E) is calculated as follows using Abbot's formula: E=(1α/β)·100 • α corresponds to the fungicidal infection of the treated plants in % and • β corresponds to the fungicidal infection of the untreated (control) plants in %
An efficacy of 0 means that the infection level of the treated plants corresponds to that of the untreated control plants; an efficacy of 100 means that the treated plants were not infected.
The expected efficacies of the mixtures of active compounds are determined using Colby's formula [R. S. Colby, Weeds 15, 20-22 (1967)] and compared with the observed efficacies.
Colby's formula: E=x+y−x·y/100 • E expected efficacy, expressed in % of the untreated control, when using the mixture of the active compounds A and B at the concentrations a and b • x efficacy, expressed in % of the untreated control, when using active compound A at the concentration a • y efficacy, expressed in % of the untreated control, when using active compound B at the concentration b
Leaves of potted vines of the cultivar “Müller-Thurgau” were sprayed to runoff point with an aqueous suspension having the concentration of active compound stated below. The suspension or emulsion was prepared from a stock solution comprising 10% of active compound in a mixture consisting of 70% of cyclohexanone, 20% of wetting agent and 10% of emulsifier. The next day, the undersides of the leaves were inoculated with an aqueous zoospore suspension of Plasmopara viticola. The grapevines were then initially placed in a water-vapor-saturated chamber at 24° C. for 48 hours and then in a greenhouse at 20-30° C. for 5 days. After this period of time, the plants were again placed in a humid chamber for 16 hours to promote sporangiophore eruption. The extent of the development of the disease on the undersides of the leaves was then determined visually.

Structure (SMILES) | Efficacy in % of the untreated control (0.25 ppm in the spray liquor) [%] | Efficacy in % of the untreated control (1 ppm in the spray liquor) [%] | Efficacy in % of the untreated control (4 ppm in the spray liquor) [%]
CC1CCN(c2c(-c3c(F)cc(F)cc3F)c(Cl)nc3ncnn23)CC1 [I, 5-chloro-7-(4-methylpiperidin-1-yl)-6-(2,4,6-trifluorophenyl)-[1,2,4]triazolo[1,5-a]-pyrimidine] | 0 | 0 | 29
COC(=O)N(OC)c1ccccc1COc1ccn(-c2ccc(Cl)cc2)n1 [II-6, pyraclostrobin, reference compound] | – | 29 | –
